Results reported in paper PMC4361900 (Journal of medicinal chemistry, 2013).

What was measured:
[1] = target: T1, LSD1 (Homo sapiens, UniProt O60341); assay: LSD1 in-vitro inhibition, horseradish peroxidase; assay type: biochemical; conditions: for Inhibition of LSD1, % inhibition @ conc.: @ 100 µM
[2] = target: T2, MAO A (Homo sapiens, UniProt P21397); assay: MAO A inhibition, kynuramine fluorescence assay; assay type: biochemical
T2 sequence (P21397 1-527): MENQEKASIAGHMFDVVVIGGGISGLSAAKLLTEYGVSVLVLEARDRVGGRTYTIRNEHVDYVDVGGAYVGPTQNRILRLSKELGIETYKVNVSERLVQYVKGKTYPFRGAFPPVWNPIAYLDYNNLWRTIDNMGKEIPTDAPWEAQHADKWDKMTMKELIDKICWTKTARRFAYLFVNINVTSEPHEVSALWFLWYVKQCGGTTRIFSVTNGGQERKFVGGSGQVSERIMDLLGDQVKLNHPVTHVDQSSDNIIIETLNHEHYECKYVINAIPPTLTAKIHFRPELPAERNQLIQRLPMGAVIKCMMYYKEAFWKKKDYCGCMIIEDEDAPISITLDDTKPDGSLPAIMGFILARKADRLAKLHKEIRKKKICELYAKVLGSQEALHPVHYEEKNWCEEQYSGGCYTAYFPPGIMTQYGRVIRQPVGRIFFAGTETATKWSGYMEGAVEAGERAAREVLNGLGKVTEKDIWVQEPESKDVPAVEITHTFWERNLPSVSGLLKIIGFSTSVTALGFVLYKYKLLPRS

[3] = target: T1, LSD1; conditions: MAO inhibitors; cited from earlier work
[4] = target: T3, MAO B (Homo sapiens, UniProt P27338); assay: MAO B inhibition, kynuramine fluorescence assay; assay type: biochemical; conditions: for Inhibition of MAO B, % inhibition @ conc.: @ 500 µM
T3 sequence (P27338 1-520): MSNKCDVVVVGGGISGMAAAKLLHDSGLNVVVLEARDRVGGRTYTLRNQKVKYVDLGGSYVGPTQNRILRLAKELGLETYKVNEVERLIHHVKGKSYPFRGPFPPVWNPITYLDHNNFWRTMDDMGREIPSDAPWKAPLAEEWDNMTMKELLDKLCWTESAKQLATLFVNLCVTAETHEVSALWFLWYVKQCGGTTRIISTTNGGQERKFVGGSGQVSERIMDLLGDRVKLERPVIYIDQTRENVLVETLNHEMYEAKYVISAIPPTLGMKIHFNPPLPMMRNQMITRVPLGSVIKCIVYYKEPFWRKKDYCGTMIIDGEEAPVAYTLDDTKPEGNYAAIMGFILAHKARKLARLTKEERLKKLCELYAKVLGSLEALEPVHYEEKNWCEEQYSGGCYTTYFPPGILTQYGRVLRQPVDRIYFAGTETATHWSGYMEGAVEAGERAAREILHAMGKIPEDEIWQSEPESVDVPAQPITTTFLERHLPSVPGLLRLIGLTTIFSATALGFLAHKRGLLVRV

[5] = Solubility in cell culture media; assay type: physicochemical
[6] = system: H3K4me2 in MCF7 cells; assay: Western blot of H3K4 dimethylation in MCF7 cells; assay type: cell-based; conditions: 24 hours incubation

Row | Compound | Inhibition of LSD1, % inhibition @ conc. [1] | other results
1 | C#CCNCC(O)CNc1ccc(-c2ccccc2)cc1 (stereo not drawn) [6a] | n.i. @ 100 µM | LSD1 inhibition in words [1]: inactive
2 | C#CCN(C)CC(O)COc1ccc(-c2ccccc2)cc1 (stereo not drawn) [5b] | – | Inhibition of MAO A, % inhibition @ conc. ([2]; @ 10 µM): n.i. @ 10 µM
3 | C#CCN(C)CC(O)COc1ccc(CC(=O)OC)cc1 (stereo not drawn) [5n] | n.i. @ 100 µM | –
4 | C#CCNCC(O)COc1ccc(C(=O)OC)cc1 (stereo not drawn) [5m] | n.i. @ 100 µM | –
5 | C#CCNCC(O)CN(C)c1ccc(-c2ccccc2)cc1 (stereo not drawn) [6b, 1-(N-Methyl-4-phenylanilino)-3-(prop-2-ynylamino)propan-2-ol] | n.i. @ 100 µM | LSD1 inhibition in words [1]: inactive
6 | C#CCN(C)CC(O)COc1ccc(CCC(=O)OC)cc1 (stereo not drawn) [5p] | n.i. @ 100 µM | –
7 | C#CCNCC(O)COc1ccc(CC(=O)OC)cc1 (stereo not drawn) [5o] | n.i. @ 100 µM | –
8 | C#CCN(C)CC(O)COc1ccc(C(=O)OC)cc1 (stereo not drawn) [5l] | n.i. @ 100 µM | –
9 | OC(CNC1CC1)COc1ccc(-c2ccccc2)cc1 (stereo not drawn) [7a] | n.i. @ 100 µM | –
10 | C#CCN(C)[C@H](C)Cc1ccccc1 [deprenyl] | – | Inhibitory activity on LSD1 [3]: millimolar range
11 | C#CCN(C)CCCC[C@H](NC(=O)OCc1ccccc1)C(=O)OCc1ccccc1 [2b] | – | Inhibition of MAO B, % inhibition @ conc. [4]: n.i. @ 500 µM
12 | C#CCNCC(O)COc1ccc(-c2ccccc2)cc1 (stereo not drawn) [5a, 3-(Prop-2-ynylamino)-2-hydroxy-1-(biphenyl-4-yloxy)propane] | – | Solubility in cell culture media [5]: soluble; H3K4 dimethylation level (western blot) [6]: increased levels of H3K4 dimethylation
13 | C#CCNCC(O)COc1ccc(-c2cc(Cl)cc(Cl)c2)cc1 (stereo not drawn) [5k] | n.i. @ 100 µM | –
14 | C#CCNCC(O)COc1ccc(-c2ccc(Cl)cc2Cl)cc1 (stereo not drawn) [5j] | n.i. @ 100 µM | –
15 | OC(CNC1CC1)COc1ccc2ccccc2c1 (stereo not drawn) [7b] | n.i. @ 100 µM | –
16 | C#CCN(C)CCCOc1cccc(NC(=O)c2ccccc2)c1 [4b] | – | Solubility in cell culture media [5]: soluble; H3K4 dimethylation level (western blot) [6]: increased levels of H3K4 dimethylation
17 | C#CCN(C)Cc1ccccc1 [pargyline] | – | Inhibitory activity on LSD1 [3]: millimolar range
18 | C#CCNCC(O)COc1ccc(-c2ccc(Br)cc2)cc1 (stereo not drawn) [5i] | n.i. @ 100 µM | –
19 | C#CCNCCCC[C@H](NC(=O)c1ccccc1)C(=O)OC(C)(C)C [1a] | – | Inhibition of MAO A, % inhibition @ conc. ([2]; @ 100 µM): n.i. @ 100 µM; Inhibition of MAO B, % inhibition @ conc. [4]: n.i. ^a @ 500 µM
20 | C#CCNCC(O)COc1ccc(C(N)=O)cc1 (stereo not drawn) [5q] | n.i. @ 100 µM | –
21 | C#CCN(C)CC(O)COc1ccc(C(N)=O)cc1 (stereo not drawn) [5r] | n.i. @ 100 µM | –
22 | C#CCN(C)CC(O)COc1ccc2ccccc2c1 (stereo not drawn) [5d] | – | MAO-B inhibition in words [4]: only limited inhibition
